{"source": "patent US5498624A", "about": "“Selected pyrazolyl derivatives” (Monsanto Company, priority 1995, dated 1996)", "key": {"[1]": {"system": "Venturia inaequalis", "test": "Apple Scab Foliar Assay (ASC Cur)", "assay_type": "in vivo", "conditions": "20 ppm, sprayed 72 hours after inoculation, apple seedlings", "protocol": "Apple Scab Foliar Assay Methods (ASC Cur)--This assay is that of Example 1 except for the sequence of the chemical application and pathogen inoculation events. One month old apple seedlings are inoculated as described. 72 hours later, the plants are removed from the mist chamber and sprayed with the test chemicals and then returned to the mist-chamber after 1 to 2 hours. Disease evaluation is made on day 8-12."}, "[2]": {"system": "Septoria nodorum", "test": "Wheat Glume Blotch Foliar Assay, curative (WGB Cur)", "assay_type": "in vivo", "conditions": "application two days post-inoculation, * = averaged value", "protocol": "A) Host Propagation--Winter wheat plants, cv. Caldwell, are grown in 5.7 cm^2 pots, three per pot, and maintained in a growth chamber set at 20° C., 80% RH with a 12 hour photoperiod.\nB) Compound Preparation--A 1.0% stock solution of each of the compounds of the present invention is first prepared utilizing an appropriate solvent such as acetone, water or DMSO. This stock is then used to prepare the final spray solution which contains the compound at the desired dosage, eg 100 ppm and 20 ppm, acetone at 20% v/v, Tween®20 at .05% w/v, and water at about 80%. Commercial standard used is tebuconazole at equivalent rates.\nC) Compound Application, Seedlings are sprayed at the two-leaf stage (GS 12) using a DeVilbiss Model 152 hand operated sprayer set at 15-20 psi. Six ml of the test solution per treatment are applied to three pots. In the protectant assay (EXAMPLE 8), the compound application is made two days pre-inoculation. In the curative assay (EXAMPLE 9), the compound is applied during a brief interruption of the disease incubation period two days post-inoculation. […]\nE) Test Evaluation--Eight to ten days after removal from the high humidity chamber, or twelve to fourteen days after inoculation, treatments are evaluated by visually estimating the percentage of the leaf area (on the first leaf) covered with lesions. […] Percent disease, as well as percent control values are calculated. […]"}}}
{"smiles": "C[C@H]1CCC[C@H](c2ccccc2NC(=O)c2cn(C)nc2C(F)F)C1", "note": "(relative stereo) [Number 3, 1H-pyrazole-4-carboxamide, 3-(difluoromethyl)-1-methyl-N-[2-(3-methylcyclohexyl)phenyl]-, trans-]", "values": [{"measurement": "ASC Cur percentage control", "setting": "[1]", "result": 69, "unit": "%"}, {"measurement": "WGB Cur percent control", "setting": "[2]; 20 ppm", "result": 62, "unit": "%"}, {"measurement": "WGB Cur percent control", "setting": "[2]; 100 ppm", "result": 67, "unit": "%"}]}
